Like-named read-outs stand apart in the source and are kept apart here.
How the values were obtained:
[1] = Example 10: clinical pharmacology / pharmacokinetics of OCA; assay type: in vivo, human; settings: for Urinary excretion / dose excreted in feces: radiolabeled ([^14C]) obeticholic acid
Procedure: This example describes clinical pharmacology and dosing of obeticholic acid (OCA—including obeticholic acid compositions described herein). […] OCA can be supplied as an oral tablet containing obeticholic acid in a formulation as described herein.
Median Tmax for glyco-OCA and tauro-OCA is 10 hours.
Following an oral administration of 25 mg [^14C]-OCA, about 87% of the dose is excreted in feces through biliary secretion. Less than 3% of the dose is excreted in the urine with no detection of OCA.

[2] = test system: CYP2B6, CYP2C8, CYP2D6, MRP2, MRP3, MRP4, MATE1, and OATP2B1; test: In vitro studies: expression of metabolizing enzymes and transporters; assay type: in vitro ADME
[3] = Physiologic pharmacokinetic model of OCA (population PK fit and simulations); design: species or system human
Procedure: Plasma levels of OCA and its conjugates were measured in healthy subjects and cirrhotic patients with varying degrees of hepatic impairment. A physiologic pharmacokinetic model for OCA was developed to quantitatively describe the absorption, distribution, metabolism, and excretion of OCA in patients with and without hepatic impairment. The model was based on a published multi-compartment PK model for CDCA, and consisted of systemic, hepatobiliary, and intestinal systems. The model was used to simulate the pathophysiological abnormalities caused by cirrhosis including decreased hepatic uptake, portal-systemic shunting, decreased liver volume, and differences in amino acid conjugation.
This examples describes development of a physiologic PK model to quantitatively describe the absorption, distribution, metabolism, and excretion of OCA. In addition, the model was used to define the effects of hepatic impairment to predict the systemic and liver exposure to OCA in subjects with various degrees of liver impairment relative to healthy subjects with normal liver function. The model was developed based on 3 studies in healthy volunteers and 2 studies in patients with varying degrees of hepatic impairment […].
Data from was used to develop the model in healthy subjects (n=160) and then adjust for hepatic impairment (n=32) using the data from the above Examples. After development, the model was validated with data sourced from healthy subjects and cirrhotic patients.
The data used in model development included subject identifiers, time of dosing and sample collection, plasma drug concentrations (OCA, glyco-OCA, and tauro-OCA), dose amount, disease status (e.g., Child-Pugh score), and meal consumption information. Study participants received standardized meals at specified times during inpatient observation. Gallbladder contraction was assumed to last 90 minutes after the start of a meal. Drug concentrations below the limit of quantification (BLQ) were imputed to half of the lower limit of quantification (LLOQ). Observed and BLQ concentrations of OCA, glyco-OCA, and tauro-OCA associated with samples drawn prior to the first dose were excluded from the analyses.
A number of structural modifications were made to the base CDCA model in order to adapt it for use with OCA. For simplification, a single space was used to represent the gut (small and large intestines). Since OCA is an exogenous molecule, it was assumed that there was no endogenous synthesis and an absorption compartment with a first-order transfer coefficient (Ka) was included to represent the administration and absorption kinetics of an oral OCA dose. Based on steric hindrance by the 6-ethyl group of OCA, no bacterial 7-alpha dehydroxylation biotransformation activity (i.e., CDCA to lithocholic acid) was included in the model. Compartment volumes in the model were fixed to physiological values from the base CDCA model. The OCA model used the physiological flow values for blood, bile and gastrointestinal transit from the original physiologic PK model for CDCA, with the exception of flows from bile duct to gallbladder and from bile duct to gut. The physiological values from the base model led to poor predictions and may not be applicable due to the simplification of the enteral system into a unified gut compartment. The biotransformation and transport rates in the model, being dependent on chemical entity structure, were estimated by fitting the model to the plasma concentration time profiles of OCA, glyco-OCA, and tauro-OCA.
The PK model was first developed using the OCA, glyco-OCA, and tauro-OCA plasma concentration time profiles from healthy volunteers with normal hepatic function. Model parameter estimates related to healthy physiology were then held constant while the PK model was further developed using OCA, glyco-OCA, and tauro-OCA plasma concentration time profiles from patients with hepatic impairment (Child-Pugh scores A, B, and C). […]

patients with NASH = test: Example 12: double-blind study of daily 25 mg OCA in NASH, high risk subgroup; assay type: in vivo, human; settings: week 72, 25 mg OCA daily
Procedure: This example describes a clinical, double-blind study examining the effect of daily 25 mg OCA on nonalcoholic steatohepatitis (NASH). OCA lead to biopsy proven improvements in liver fibrosis. Patients with NASH who have elevated NAFLD activity scores (NAS) and fibrosis are at a higher risk of progression to cirrhosis and liver related mortality.
The high risk subgroup was defined as patients with a baseline NAS≥4, baseline fibrosis stage 2 or 3 or baseline fibrosis stage 1 with a comorbidity (type 2 diabetes, BMI≥30 kg/m^2 or ALT≥60 U/L) (OCA n=114; Placebo n=112). The Fibrosis-4 (FIB-4), the aspartate transaminase to platelet ratio (APRI), and the NAFLD fibrosis score (NFS) were all examined between baseline through 72 weeks of treatment and for an additional 24 weeks of follow up.

[4] = normal hepatic function, Fixed; cited from earlier work
[5] = oral, listed as obeticholic acid
[6] = exponent on t10, model estimate
[7] = normal hepatic function, model estimate

increase in obeticholic acid exposure ([1]; 20 mg omeprazole once daily with obeticholic acid 10 mg once daily): less than 1.2 fold
systemic exposure versus dose ([1]; 5, 10, and 25 mg once daily for 14 days): increase dose proportionally
Vd ([1]; human, in vivo, read-out: volume of distribution): 613 L
Tmax ([1]; human, plasma, multiple oral doses of OCA 10 mg once daily, read-out: median time (Tmax) of peak plasma concentrations): ~1.5 h
half-life ([1]; human, plasma, oral, read-out: effective half-life (converted)): ~24 h
Tmax ([1]; human, plasma, oral, read-out: median time (tmax) of peak plasma concentrations): ~2 h
Urinary excretion ([1]; oral): Less than 3%
dose excreted in feces ([1]; oral): about 87%
Urinary excretion [1, 5]: less than 3%
dose excreted in feces [1, 5]: greater than 85%
change in expression of CYP2B6, CYP2C8, CYP2D6, MRP2, MRP3, MRP4, MATE1, and OATP2B1 [2]: did not cause a significant change
Effect in Mild hepatic impairment in hepatic uptake of OCA and conjugates [3, 6]: −0.132
Effect in Moderate hepatic impairment in hepatic uptake of OCA and conjugates [3, 6]: −1.86
Effect in Severe hepatic impairment in hepatic uptake of OCA and conjugates [3, 6]: −2.37
Effect of Mild hepatic impairment on OCA tauro-conjugation ([3]; exponent, model estimate): 0.00481
Effect of Moderate hepatic impairment on OCA tauro-conjugation ([3]; exponent, model estimate): 1.05
Effect of Severe hepatic impairment on OCA tauro-conjugation ([3]; exponent, model estimate): 1.56
Ka: OCA first order rate constant of oral absorption [3, 7]: 5.32 h⁻¹
b16: OCA rate of conjugation with glycine [3, 7]: 1.44 h⁻¹
b18: OCA rate of conjugation with taurine [3, 7]: 0.312 h⁻¹
kout: Rate of fecal elimination of OCA [3, 7]: 0.612 L/h
t10: OCA transport rate from liver to sinusoidal space [3, 7]: 1698 h⁻¹
t34: OCA rate of absorption from gut to portal space [3, 7]: 0.857 h⁻¹
Structure (SMILES): CC[C@H]1[C@@H](O)[C@@H]2[C@H](CC[C@]3(C)[C@@H]([C@H](C)CCC(=O)O)CC[C@@H]23)[C@@]2(C)CC[C@@H](O)C[C@@H]12 [OCA, 3α,7α-dihydroxy-6α-ethyl-5β-cholan-24-oic acid]
effect of food on PK ([1]; 10 mg OCA): does not have a clinically relevant effect
APRI OCA-Placebo LS Mean change (patients with NASH; 95% CI=[−0.32, −0.15]): −0.23
NFS OCA-Placebo LS Mean change (patients with NASH; 95% CI=[−0.45, −0.10]): −0.28
FIB-4 OCA-Placebo LS Mean change (patients with NASH; 95% CI=[−0.47, −0.19]): −0.33
t13: OCA transport rate from sinusoidal space to liver [4]: 1.62 h⁻¹

Reference: patent US10758549B2, “Compositions of obeticholic acid and methods of use” (Intercept Pharmaceuticals, Inc., priority 2015, dated 2020)
